The nature of data set [1]: Plasma concentration in C57BL/6 mouse at 50 mg/kg, ip administered as nanosuspension measured after 24 hrs by LC-MS/MS analysis. It is filed as ADME, organism-based.
The test system of data set [2] is Mus musculus. The experiment in a line: Antihyperlipidemic activity in C57BL/6 mouse assessed as increase in HDL-C level at 50 mg/kg, ip qd administered as nanosuspension for 2 days measured 6 hrs post-last dose by LC-MS/MS analysis relative to control. It is filed as functional.
Data set [3] concerns the target T1, Endothelial lipase (Mus musculus, UniProt Q9WVG5).
T1 sequence (Q9WVG5 whole entry): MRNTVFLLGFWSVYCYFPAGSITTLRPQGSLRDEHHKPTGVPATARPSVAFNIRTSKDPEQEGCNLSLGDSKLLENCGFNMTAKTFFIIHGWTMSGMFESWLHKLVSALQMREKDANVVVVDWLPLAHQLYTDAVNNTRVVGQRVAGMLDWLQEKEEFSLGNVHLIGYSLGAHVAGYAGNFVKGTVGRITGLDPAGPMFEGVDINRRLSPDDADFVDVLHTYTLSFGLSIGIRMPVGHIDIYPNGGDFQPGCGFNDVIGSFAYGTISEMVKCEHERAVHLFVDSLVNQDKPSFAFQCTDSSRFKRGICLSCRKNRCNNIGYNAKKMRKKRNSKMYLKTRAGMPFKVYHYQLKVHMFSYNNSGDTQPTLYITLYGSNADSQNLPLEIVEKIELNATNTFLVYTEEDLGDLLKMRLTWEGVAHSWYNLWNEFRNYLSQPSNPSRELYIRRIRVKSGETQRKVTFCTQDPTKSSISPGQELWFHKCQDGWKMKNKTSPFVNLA
The data set can be described thus: Inhibition of endothelial lipase in hepatic lipase knock-out mouse plasma. It counts as cell-free.

The target of data set [4] is T2, Endothelial lipase (Homo sapiens, UniProt Q9Y5X9).
T2 sequence (Q9Y5X9 whole entry): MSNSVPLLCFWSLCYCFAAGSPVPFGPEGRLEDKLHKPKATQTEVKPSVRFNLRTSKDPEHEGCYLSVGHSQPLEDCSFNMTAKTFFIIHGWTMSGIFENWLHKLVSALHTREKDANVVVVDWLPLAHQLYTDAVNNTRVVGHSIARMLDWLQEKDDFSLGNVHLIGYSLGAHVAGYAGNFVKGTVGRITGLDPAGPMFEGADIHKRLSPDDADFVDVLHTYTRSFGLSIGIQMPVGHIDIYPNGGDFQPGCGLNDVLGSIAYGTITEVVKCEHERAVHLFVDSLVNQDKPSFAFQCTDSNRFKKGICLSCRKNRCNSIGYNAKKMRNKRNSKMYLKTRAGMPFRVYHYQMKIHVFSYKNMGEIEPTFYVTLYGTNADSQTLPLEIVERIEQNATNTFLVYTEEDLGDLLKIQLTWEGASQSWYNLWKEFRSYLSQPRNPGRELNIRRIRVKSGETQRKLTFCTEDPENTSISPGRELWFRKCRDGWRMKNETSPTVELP
The data set can be described thus: Inhibition of EL in human HT1080 cells using A10070 as substrate preincubated for 20 min followed by DMPG vesicle doped substrate addition and measured at 20 secs interval for 10 mins by fluorescence assay. It is filed as cell-based.

The target in data set [5] is T2, Endothelial lipase. The data set can be described thus: Inhibition of EL in human HT1080 cells using D31-POPC-HDL as substrate incubated for 2 hrs in presence of human serum by LC/MS analysis. It is filed as cell-based.
A short description of data set [6]: Metabolic stability in mouse liver microsomes assessed as compound remaining at 0.5 uM incubated for 10 mins. It counts as ADME, Microsome. Conditions: read-out: Stability.
Data set [7] in a line: Cmax in C57BL/6 mouse at 50 mg/kg, ip administered as nanosuspension measured after 24 hrs by LC-MS/MS analysis. As to conditions: in vivo. The arrangement: dose 50 mg/kg, route intraperitoneal. It is filed as ADME, organism-based.
For data set [8], the target named is T3, Hepatic triacylglycerol lipase (Homo sapiens, UniProt P11150).
T3 sequence (P11150 whole entry): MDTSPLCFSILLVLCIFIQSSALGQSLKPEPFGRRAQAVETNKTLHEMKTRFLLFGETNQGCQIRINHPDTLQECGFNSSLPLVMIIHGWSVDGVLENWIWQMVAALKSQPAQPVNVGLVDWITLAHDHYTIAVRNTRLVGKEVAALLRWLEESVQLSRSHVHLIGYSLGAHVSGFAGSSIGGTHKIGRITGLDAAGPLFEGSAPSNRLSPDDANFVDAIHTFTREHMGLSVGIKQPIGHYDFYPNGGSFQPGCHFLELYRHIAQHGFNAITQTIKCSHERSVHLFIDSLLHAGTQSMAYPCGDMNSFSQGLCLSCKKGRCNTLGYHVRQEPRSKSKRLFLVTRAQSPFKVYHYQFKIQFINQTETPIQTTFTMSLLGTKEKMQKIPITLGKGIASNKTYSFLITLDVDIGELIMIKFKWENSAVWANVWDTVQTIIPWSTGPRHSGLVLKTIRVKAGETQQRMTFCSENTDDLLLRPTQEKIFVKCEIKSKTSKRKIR
The data set can be described thus: Inhibition of human HL […] using A10070 as substrate preincubated for 20 min followed by DMPG vesicle doped substrate addition and measured at 20 secs interval for 10 mins by fluorescence assay. It is filed as cell-based.

Data set [9] in a line: Metabolic stability in rat liver microsomes assessed as compound remaining at 0.5 uM incubated for 10 mins. It counts as ADME, Microsome. As to conditions: read-out: Stability. On the technique in general: Microsomes from liver hold many membrane-bound enzymes, among them those of drug oxidation.
A short description of data set [10]: AUC (0 to 24 hrs) in C57BL/6 mouse at 50 mg/kg, ip administered as nanosuspension measured after 24 hrs by LC-MS/MS analysis. Conditions: in vivo. It is filed as ADME, organism-based. Details: dose 50 mg/kg, time < 24 hr, route intraperitoneal.
The species named for a further data set is Homo sapiens. The experiment in a line: Selectivity index, ratio of IC50 for human HL expressed in […] cells to IC50 for EL in human HT1080 cells. It is filed as cell-based.
Data set [11] is described as follows: Metabolic stability in human liver microsomes assessed as compound remaining at 0.5 uM incubated for 10 mins. It is filed as ADME, Microsome. Conditions: read-out: Stability.
Data set [12] in a line: Plasma concentration in C57BL/6 mouse at 50 mg/kg, po measured after 24 hrs by LC-MS/MS analysis. It is filed as ADME, organism-based.
The nature of data set [13]: Plasma concentration in C57BL/6 mouse at 50 mg/kg, ip qd administered as nanosuspension for 2 days measured 6 hrs post-last dose by LC-MS/MS analysis. It is filed as ADME, organism-based.
The subject of data set [14] is Mus musculus. The data set can be described thus: Induction of macrophage-mediated [3H]-cholesterol efflux in C57BL/6 mouse at 50 mg/kg, ip qd administered as nanosuspension for 3 days followed by [3H]-cholesterol addition on day 3 and measured after 2.5 hrs relative to control. It counts as functional.
The test system of data set [15] is Mus musculus. The experiment in a line: Antihyperlipidemic activity in HL knock out C57BL/6 mouse assessed as increase in HDL-C level at 50 mg/kg, ip qd administered as nanosuspension for 2 days measured 6 hrs post-last dose by LC-MS/MS analysis relative to control. It counts as functional.
Data set [16] can be described thus: Plasma concentration in EL knock out C57BL/6 mouse at 50 mg/kg, ip qd administered as nanosuspension for 2 days measured 6 hrs post-last dose by LC-MS/MS analysis. It is filed as ADME, organism-based.
Data set [17] is described as follows: Plasma concentration in C57BL/6 mouse at 50 mg/kg, sc measured after 24 hrs by LC-MS/MS analysis. It is filed as ADME, organism-based.
Data set [18] concerns Mus musculus. The experiment in a line: Antihyperlipidemic activity in hCETP/apoB-100 dual transgenic C57BL/6 mouse assessed as effect on LDL-C level at 50 mg/kg, ip bid administered as nanosuspension for 2 days measured 6 hrs post-last dose by FPLC analysis. It is filed as functional, organism-based.
Data set [19] in a line: Plasma concentration in HL knock out C57BL/6 mouse at 50 mg/kg, ip qd administered as nanosuspension for 2 days measured 6 hrs post-last dose by LC-MS/MS analysis. It is filed as ADME, organism-based.
The subject of data set [20] is Mus musculus. The experiment in a line: Antihyperlipidemic activity in hCETP/apoB-100 dual transgenic C57BL/6 mouse assessed as increase in HDL-C level at 50 mg/kg, ip bid administered as nanosuspension for 2 days measured 6 hrs post-last dose by FPLC analysis relative to control. It is filed as functional.
In data set [21] the test system is Mus musculus. The data set can be described thus: Antihyperlipidemic activity in EL knock out C57BL/6 mouse assessed as increase in HDL-C level at 50 mg/kg, ip qd administered as nanosuspension for 2 days measured 6 hrs post-last dose by LC-MS/MS analysis relative to control. It is filed as functional, organism-based.
In data set [22] the target is T2, Endothelial lipase. The experiment in a line: Inhibition of EL in human HT1080 cells using D31-POPC-HDL as substrate incubated for 2 hrs in presence of mouse plasma by LC/MS analysis. It counts as cell-based.

Usually IC50 stands for the concentration needed to halve the response being measured. Broadly, the Cmax is the maximum level reached in the sampled fluid or tissue. What is called AUC(0-t) is the area under the concentration-time curve up to a stated or last time point. Read a high AUC(0-t) as high exposure.

Calls of active or inactive are those of the source. No cut-off for these calls is given here. Where only a bound is given, the exact number is not on record here.

In [1], `NS(=O)(=O)NCc1nnc(C(=O)c2nc3cc(-c4ccc5c(c4)CNC5=O)c(F)cc3s2)o1` returned a concentration at 24 h of 460 nM. In the data set with Mus musculus [2], the Activity is listed as 36.9 - 37%.
For `NS(=O)(=O)NCc1nnc(C(=O)c2nc3cc(F)c(C(=O)NCC(F)(F)F)cc3s2)o1`, the IC50 is 200 nM at Endothelial lipase [3], less than 0.5 nM against Endothelial lipase [4], 50 nM at Endothelial lipase [5] and 4 nM in [8]. Also, the results for the remaining at 10 min, 0.5 µM in [6], in data set [9] and in data set [11] were more than 80%, more than 80% and 87%, respectively. The molecule also had a concentration at 24 h in [1] of 250 nM. For the same molecule, the concentration in [7] peaked (Cmax) at 7100 nM. For the same molecule, the AUC(0-t) at 24 h in [10] was 58 µM·h. Further, the Ratio IC50 in the data set filed under Homo sapiens was determined as 8. For the same molecule, the Activity with Mus musculus [2] is on record as 37.8 - 38%.
Consider `NS(=O)(=O)NCc1nnc(C(=O)c2nc3ccc(-c4ccccc4)cc3s2)o1`, for which the concentration at 24 h was 250 nM in data set [12], 500 nM in [1] and 190 nM in data set [17]. Further, the concentration at 6 h was determined as 520 nM in data set [13], 8500 nM in data set [16] and 11000 nM in [19]. For the same molecule, the Activity in the data set on Mus musculus [14] is 53%; in the data set with Mus musculus [15], 31.7 - 32%; in the data set with Mus musculus [20], 36%; in the data set with Mus musculus [2] it was 56%. In addition, the outcome in the data set with Mus musculus [18] and in the data set with Mus musculus [21] was inactive.
For `NC(=O)NCc1nnc(C(=O)c2nc3ccc(-c4ccccc4)cc3s2)o1`, the IC50 was 1000 nM at Endothelial lipase [22], 30 nM against Endothelial lipase [4], 1000 nM on Endothelial lipase [5] and more than 10 nM in [8].
With `NS(=O)(=O)NCc1nnc(C(=O)c2nc3cc(-c4ccc(C(=O)NCC(F)(F)F)cc4)c(F)cc3s2)o1`, the IC50 on Endothelial lipase [3] was 200 nM; against Endothelial lipase [4], less than 0.5 nM; at Endothelial lipase [5] it was 200 nM; in [8] it was 4 nM. Moreover, the remaining at 10 min, 0.5 µM worked out at 100% in data set [6] and 98% in data set [11].
With `CN(Cc1nnc(C(=O)c2nc3ccc(-c4ccccc4)cc3s2)o1)S(N)(=O)=O`, the IC50 is 1000 nM at Endothelial lipase [22], 20 nM at Endothelial lipase [4], 7000 nM at Endothelial lipase [5] and 3 nM in [8].

The values above are taken from ChEMBL document CHEMBL4321883 (J Med Chem, 2020).
